According to patent US20240182407A1, “QUINOLINE COMPOUND SALT OR CRYSTAL FORM, PREPARATION METHOD THEREFOR, AND APPLICATION THEREOF” (Nanjing Zenshine Pharmaceuticals Co., Ltd., priority 2021, published 2024):
Values after ≈ are worked out from the molar mass of the structure shown. Values joined by “and” are separate entries in the source; they are usually repeats but may differ in a detail not shown here. Identical values can stand only once. Values belong to the molecule of their own block, whether it stands above or below them.

Experiments:
[1] = Solubility in simulated gastrointestinal fluids (SGF, FeSSIF, FaSSIF) at 37° C.; assay type: physicochemical; settings: for Solubility: 37° C.
Procedure: The solubilities of Compound A and p-toluenesulfonate (Sample 5, crystal form I) in simulated gastrointestinal fluids (SGF, FeSSIF and FaSSIF) at 37° C. were tested.
About 7.5 mg of Compound A and p-toluenesulfonate were separately added to 1.5 mL of three biological vehicles to prepare suspensions. All the suspensions were placed in a shaker at 37° C. and shaken at 200 rpm for 24 h, and about 0.5 mL was sampled separately at 0.5 h, 2 h and 24 h for filtration. The obtained filtrates were subjected to HPLC analysis and pH measurement, and the filter cakes were respectively measured by XRPD.

[2] = Solid stability, 40° C./75% RH and 60° C., one week (HPLC purity, XRPD); assay type: physicochemical; settings: solid
Procedure: Appropriate amounts of Compound A and p-toluenesulfonate of Compound A (Sample 5, crystal form I) were respectively placed in 40° C./75% RH and 60° C. environments for one week to determine solid stability. At days 0 and 7, HPLC purity analysis and solid XRPD determination were carried out, and some of the results were as shown in Table 7.

[3] = test system: human-derived lymphoma DoHH-2 cell line; assay: Human-derived lymphoma DoHH-2 subcutaneous xenograft in CB17/SCID female immunodeficient mice; assay type: in vivo, mouse; settings: 50 mg/kg p.o. BID, Day 24
Procedure: In Example 8, the anti-tumor effects of p-toluenesulfonate of Compound A at various dosages by intragastric administration on human-derived lymphoma DoHH-2 cell line subcutaneous transplantation CB17/SCID female immunodeficient mouse model were evaluated.
7-9-week-old CB17/SCID female immunodeficient mice were subcutaneously inoculated with […] DoHH-2 cells to establish a subcutaneous human lymphoma xenograft tumor model. When the average tumor volume in the mice reached 68 mm^3, the mice were randomly divided into groups and dosed on the day of grouping. The treatment method for each treatment group and vehicle control group was as follows:
p-toluenesulfonate of Compound A (Sample 6), given 100 mg/kg (p.o. QD) group, once daily, for 25 days (days 0-24);
p-toluenesulfonate of Compound A (Sample 6), given 30 mg/kg (p.o. QD) group, once daily, for 25 days (days 0-24);
positive treatment group (Duvelisib, purchased from Shanghai Lollane biological technology Co., Ltd.), given 50 mg/kg (p.o. BID) twice daily with an interval of 12 h, for 24 days; and
vehicle control group (5% DMSO/40% PEG400/55% water, by volume) (p.o. QD), given once daily, for 25 days (days 0-24).
There were 10 mice in each group, and all the mice were administered starting on the day of grouping (Day 0) and euthanized on Day 24 after grouping (Day 24). The efficacy was evaluated according to the tumor volume at the end point of the experiment.
The abbreviation p.o. stood for oral gavage, QD stood for once daily, and BID stood for twice daily.
The relative tumor inhibition rate (TGI) was calculated by the following formula: […]
T and C were respectively the average tumor volumes in the experimental group and the vehicle control group at a specific time point.

- pH of filtrate ([1]; FaSSIF (pH 6.52), 0.5 h): 6.55
- pH of filtrate ([1]; FaSSIF (pH 6.52), 2 h): 6.51
- pH of filtrate ([1]; FaSSIF (pH 6.52), 24 h): 6.34
- solubility at 30 min ([1]; FaSSIF, 37 °C, pH 6.52, fassif, thermodynamic from solid, FaSSIF (pH 6.52), 30 min): 370 µg/mL (≈ 924 µM)
- solubility at 2 h ([1]; FaSSIF, 37 °C, pH 6.52, fassif, thermodynamic from solid, FaSSIF (pH 6.52), 2 h): 320 µg/mL (≈ 799 µM)
- solubility at 24 h ([1]; FaSSIF, 37 °C, pH 6.52, fassif, thermodynamic from solid, FaSSIF (pH 6.52), 24 h): 350 µg/mL (≈ 874 µM)
- Solubility ([1]; FeSSIF (pH 4.99), 30 min): 2060 µg/mL (≈ 5140 µM)
- Solubility ([1]; FeSSIF (pH 4.99), 2 h): 1890 µg/mL (≈ 4720 µM)
- Solubility ([1]; FeSSIF (pH 4.99), 24 h): 2200 µg/mL (≈ 5490 µM)
- pH of filtrate ([1]; FeSSIF (pH 4.99), 0.5 h): 5.00
- pH of filtrate ([1]; FeSSIF (pH 4.99), 2 h): 4.94
- pH of filtrate ([1]; FeSSIF (pH 4.99), 24 h): 4.86
- Solubility ([1]; SGF (pH 1.21), 30 min): >4920 µg/mL
- Solubility ([1]; SGF (pH 1.21), 2 h): >4910 µg/mL
- Solubility ([1]; SGF (pH 1.21), 24 h): >4830 µg/mL
- pH of filtrate ([1]; SGF (pH 1.21), 0.5 h): 1.19
- pH of filtrate ([1]; SGF (pH 1.21), 2 h): 1.16
- pH of filtrate ([1]; SGF (pH 1.21), 24 h): 1.18
- Purity (peak area %) Average - 40° C./75% RH - 7 d ([2]; 40° C./75% RH, 7 d, average): 98.49 peak area %
- Purity (peak area %) 40° C./75% RH - 7 d ([2]; 40° C./75% RH, 7 d, single determinations): 98.52 peak area % and 98.45 peak area %
- Purity (peak area %) Average - 60° C. - 7 d ([2]; 60° C., 7 d, average): 98.43 peak area %
- Purity (peak area %) 60° C. - 7 d ([2]; 60° C., 7 d, single determinations): 98.37 peak area % and 98.50 peak area %
- decrease of chemical purity ([2]; 60° C., 7 days): about 0.16%
- Purity (peak area %) Average - 0 d ([2]; day 0, average): 98.59 peak area %
- Purity (peak area %) 0 d ([2]; day 0, single determinations): 98.63 peak area % and 98.55 peak area %
Structure (SMILES): C[C@H](Nc1nc(N)nc(N)c1C#N)c1cc2ccc(F)cc2nc1-c1ccccn1 [Compound A]

Structure (SMILES): C[C@H](Nc1ncnc2nc[nH]c12)c1cc2cccc(Cl)c2c(=O)n1-c1ccccc1 [Duvelisib, reference compound]
- average tumor volume [3]: 1496.12 mm^3
- relative tumor inhibition rate (TGI) [3]: 30%
